# Measured values reported in publication PMC6283646, “Identification and binding mode of a novel Leishmania Trypanothione reductase inhibitor from high throughput screening” (PLoS Neglected Tropical Diseases, 2018).
# Read-outs that look alike come from different tables or passages of the source.
# Assays:
# [1] = system: L. infantum promastigotes; assay: Inhibition of promastigote growth (MTT); type: cell-based; conditions: for IC50: Leishmania infantum, 72 h, MTT
# Description: Promastigote (the extracellular stage of the Leishmania life cycle) growth inhibition was evaluated using L. infantum strain (MHOM/TN/80/IPT1). […] Promastigotes were grown in Schneider’s Drosophila medium (SIGMA) containing 10% Fetal Calf Serum (FCS) (GIBCO-BRL) and 2% gentamicin (50 mg/L) (Sigma) at 22°C. Parasites were adjusted to 1 × 10^6 parasites/mL, and 200 μL of suspension was seeded in triplicate in 96-well flat bottom microplates and incubated with varying concentrations of compound. […] Each experiment was done in triplicate for each drug concentration and two independent experiments were performed. After 72 h of incubation, 30 μL of MTT was added to each well and plates were further incubated for 2 h. The absorbance at 550 nm was measured with a 96-well scanner (DINEX Technologies, VA, USA). Anti-leishmanial activity per experimental point was expressed as mean percentage of inhibition with respect to vehicle treated parasites (0%). In addition, the promastigote vitality was followed by microscopic observation after 72 h. Data were analyzed and plotted by Prism (GraphPad, San Diego, USA).
# L. infantum TR [2] = target: T1, L. infantum TR (Leishmania infantum, UniProt A4HSF7); assay: Luminescence-based (NADPH-Glo) TR enzymatic assay; type: biochemical
# T1 construct: made in house
# Excerpt: (§1) L. infantum TR was cloned and purified as previously described.[9, 28] Bovine serum albumin (BSA), NADPH, auranofin, hGR, oxidized glutathione (GSSG) and DTNB were purchased from Sigma-Aldrich (St. Louis, MO); oxidized trypanothione (TS2) was purchased from Bachem (Bubendorf, Switzerland); the NADPH-Glo kit was purchased from Promega (Madison, WI, U.S.A.). Compounds, dissolved in DMSO, were transferred to 384-well white plates (Greiner Bio One, Frickenhausen, Germany) using the acoustic droplet ejection technology (ATS-100, EDC Biosystems, U.S.A.) to reach the desired final concentration. The TR enzymatic reaction was performed by addition of 0.1 nM TR, 12.5 μM NAPDH, 15 μM TS2 in 50 mM HEPES (pH 7.4), 40 mM NaCl, 0.01% BSA in a final volume of 15 μL. After 60 min of incubation at room temperature, an equal volume of NADPH-Glo reagent was added and the luminescent signal was acquired by an EnVision plate reader (PerkinElmer, Waltham, MA, U.S.A.). […] In addition, in order to make sure that the production of a reducing agent (i.e. T(SH)2) by the TR activity was not going to interfere with the assay, and in absence of T(SH)2 as purified reagent, the effect of DTT and GSH was tested on the NADPH-Glo reaction resulting in no interference at concentrations relevant for the current setup (S2 Fig). The hGR assay was performed by addition of 0.5 nM hGR, 10 μM GSSG, 20 μM NADPH in 50 mM HEPES (pH 7.4), 40 mM NaCl, 0.01% BSA in a final volume of 15 μL. After 30 min incubation at room temperature 15 μl of NADPH-Glo kit was added to reveal the signal. The 5,5′-dithiobis(2-nitrobenzoic acid) (DTNB) assay was performed using 2 nM TR, 100 μM NADPH, 4 μM TS2 and 200 μM DTNB in 40 mM HEPES (pH 7.4), 1 mM EDTA, 0.01% BSA and 0.05% tween-20 in a final volume of 50 μl. The absorbance signal (412 nm) was acquired 15 minutes post incubation at room temperature using the plate reader (Safire2, Tecan, Switzerland). Results were analyzed using Prism software (GraphPad, San Diego, CA, U.S.A.) and Vortex (Dotmatics, Bioshops Stortford, UK). Dose-response curves were fitted by four-parameter logistic regression.
# L. infantum TR [3] = target: T1, L. infantum TR; assay: DTNB absorbance-based TR assay; type: biochemical
# Excerpt: as §1, with “The 5,5′-dithiobis(2-nitrobenzoic acid) (DTNB) assay was performed using 2 nM TR, 100 μM NADPH, 4 μM TS2 and 200 μM DTNB in 40 mM HEPES (pH 7.4), 1 mM EDTA, 0.01% BSA and 0.05% tween-20 in a final volume of 50 μl.” left out
# [4] = target: T2, human glutathione reductase (hGR) (Homo sapiens, UniProt P00390); assay: hGR assay (NADPH-Glo); type: biochemical; conditions: for IC50: n=3
# T2 construct: purchased Sigma-Aldrich
# T2 sequence (P00390 44-522): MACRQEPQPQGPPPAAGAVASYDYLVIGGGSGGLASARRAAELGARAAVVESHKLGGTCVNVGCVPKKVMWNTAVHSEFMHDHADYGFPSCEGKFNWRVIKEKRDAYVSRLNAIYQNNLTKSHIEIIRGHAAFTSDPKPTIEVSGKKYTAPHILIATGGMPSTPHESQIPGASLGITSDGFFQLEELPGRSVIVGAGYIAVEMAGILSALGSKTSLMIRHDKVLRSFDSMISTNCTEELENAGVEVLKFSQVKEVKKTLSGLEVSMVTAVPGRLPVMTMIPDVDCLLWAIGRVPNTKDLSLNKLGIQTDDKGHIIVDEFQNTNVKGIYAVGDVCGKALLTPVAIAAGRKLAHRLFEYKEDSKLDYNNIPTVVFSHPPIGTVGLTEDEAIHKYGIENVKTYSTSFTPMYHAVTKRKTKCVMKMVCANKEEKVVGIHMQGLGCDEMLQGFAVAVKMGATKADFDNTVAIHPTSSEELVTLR
# Excerpt: as §1
# TR [5] = target: T3, TR (Leishmania infantum, UniProt A4HSF7); assay: Binding assay by SPR
# T3 construct: made in house
# Description: Surface plasmon resonance (SPR) interaction analysis was performed using a Biacore T200 (GE Healthcare, Uppsala, Sweden). TR was immobilized on a CM4 chip by amine coupling according to manufacturer’s instructions (Amine Coupling Kit, GE Healthcare, Uppsala, Sweden). Briefly, the surface of the sensor chip was activated for 7 min using a mixture of 0.1 M N-hydroxy succinimide (NHS) and 0.4 M N-ethyl-N’-[3-dimethyl-aminopropyl] carbodiimide (EDC) then 25 μg/mL of TR in 10 mM sodium acetate (pH 5.0) was injected for 360 s at 10 μl/min, finally residual activated groups on the surface were blocked by a 7-min injection of 1 M ethanolamine (pH 8.5). A reference channel for background subtraction was prepared by activation with EDC/NHS mixture (0.1 M/0.4 M as per ligand immobilization), followed by blocking with 1 M ethanolamine. The binding of the selected hit to the immobilized ligand was evaluated by a multi-cycle kinetic procedure in 50 mM HEPES pH 7.4, 40 mM NaCl, 0.05% Tween-20 supplemented with 2% DMSO (Sigma Aldrich). The analyte was injected for 20 s at 30 μl/min until equilibrium and dissociation monitored for 120 s. A standard curve of DMSO was included for solvent correction. Biomolecular binding events were reported as changes of resonance units (RUs) over time. The data were analysed by the Biacore T200 evaluation software: specific sensorgrams were obtained for the analyte, by subtracting the signals of the reference channel to those of the TR-immobilized one, and corrected for DMSO interference from DMSO standard curve. The binding affinity was evaluated at steady state whereas the kinetic parameters were calculated by a one-phase association and two-phase dissociation model using the Prism software (GraphPad, San Diego, CA, U.S.A.)
# TR [6] = target: T3, TR; assay: Competition assay with TS2 or NADPH; type: biochemical; conditions: 4, 16, 64 μM compound
# Description: Competition assays were performed using three test concentrations (4, 16 and 64 μM) for the competing compounds. The reaction buffer and components were mostly identical to those used in the TR assay described above, but 1 nM TR was employed for 5 minutes against a serial dilution of either TS2 in presence of 40 μM NADPH or NADPH in presence of 30 μM TS2. The residual amount of NADPH was measured using the NADPH-Glo kit (Promega, U.S.A.) after 30 min incubation at room temperature as per the manufacturer’s protocol. The luminescent signal was measured using the EnVision plate reader (PerkinElmer, USA). IC50, Vmax, and Km values were calculated using Prism software (GraphPad, San Diego, CA, U.S.A.).
# The NADPH concentration for the TS2 dilutions was 40 μM while the TS2 concentration for the NADPH dilutions was 30 μM.
# [7] = Solubility in assay buffer; type: physicochemical; conditions: aqueous buffer
# TR [8] = target: T3, TR; set-up: method as in PMID 26033467; conditions: read-out: TS2 Km; cited from earlier work
# [9] = Fig 5, read-out: IC50 (TR inhibition potency)
# T3 sequence (A4HSF7 1-491): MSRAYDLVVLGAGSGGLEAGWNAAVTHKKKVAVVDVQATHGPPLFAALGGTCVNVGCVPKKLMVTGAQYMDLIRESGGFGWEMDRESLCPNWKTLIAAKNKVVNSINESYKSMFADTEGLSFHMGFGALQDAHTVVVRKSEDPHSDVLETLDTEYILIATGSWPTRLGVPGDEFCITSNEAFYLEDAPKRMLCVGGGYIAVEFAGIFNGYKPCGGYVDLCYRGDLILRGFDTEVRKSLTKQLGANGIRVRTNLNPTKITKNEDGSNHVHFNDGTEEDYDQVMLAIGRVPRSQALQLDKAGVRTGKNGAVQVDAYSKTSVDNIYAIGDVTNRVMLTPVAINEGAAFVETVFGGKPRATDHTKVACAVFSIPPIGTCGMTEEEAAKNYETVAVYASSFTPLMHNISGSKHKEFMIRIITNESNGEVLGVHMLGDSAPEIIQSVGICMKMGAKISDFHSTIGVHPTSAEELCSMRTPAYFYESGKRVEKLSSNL
# T1 sequence (A4HSF7 entry or part of it): as the sequence (A4HSF7 1-491) above
smiles,measurement,setting,value
"C[C@@H]1[C@H](O)[C@@H](C)/C=C/C=C/C=C/C=C/C=C/C=C/C=C/[C@H](O[C@@H]2O[C@H](C)[C@@H](O)[C@H](N)[C@@H]2O)C[C@@H]2O[C@](O)(C[C@@H](O)C[C@@H](O)[C@H](O)CC[C@@H](O)C[C@@H](O)CC(=O)O[C@H]1C)C[C@H](O)[C@H]2C(=O)O [Amphotericin B, reference compound]",IC50,[1],0.5 µM
"CC(=O)OC[C@H]1O[C@@H]([S-])[C@H](OC(C)=O)[C@@H](OC(C)=O)[C@@H]1OC(C)=O.CCP(CC)CC.[Au+] [Auranofin, reference compound]",IC50,"L. infantum TR [2]; dose-response, Fig 3D, read-out: potency, luminescent assay",6.6 ± 1.05 µM
same,IC50,"L. infantum TR [3]; dose-response, Fig 3D, read-out: potency, DTNB assay",0.154 ± 0.0107 µM
O=C(N/N=C/c1ccc([N+](=O)[O-])s1)C1CC12CCC2 (stereo not drawn) [Compound 1],IC50,L. infantum TR [2]; [9],1.76 ± 0.371 µM
CN(C)C(=O)c1ccc(NCCC(=O)c2cc3ccccc3o2)cc1 [Compound 2],IC50,L. infantum TR [2]; [9],13.3 ± 2.69 µM
same,IC50,"L. infantum TR [2]; n=3, read-out: TR assay IC50",13.3 ± 2.69 µM
same,selectivity for TR with respect to hGR,[4],not selective
same,IC50,[4],13.9 ± 3.5 µM
"CCN(CC)CCOC(=O)c1ccc(NCCC(=O)c2ccc([N+](=O)[O-])cc2)cc1 [Compound 3, 2-(Diethylamino)ethyl 4-((3-(4-nitrophenyl)-3-oxopropyl)amino)benzoate]",IC50,L. infantum TR [2]; [9],7.51 ± 2.53 µM
same,IC50,"L. infantum TR [2]; n=3, read-out: TR assay IC50",7.52 ± 2.53 µM
same,IC50,"L. infantum TR [2]; read-out: Luminescence assay IC50 (in vitro potency, TR)",7.5 ± 2.5 µM
same,IC50,L. infantum TR [3]; read-out: DTNB IC50,4 ± 0.9 µM
same,selectivity for TR with respect to hGR,[4],selective
same,IC50,[4],> 85 µM
same,Kd,"TR [5]; Kd from kslow/kon ratio, kslow/kon",22.7 µM
same,kon,TR [5]; one-phase association model,3510 ± 1.09e+06 M⁻¹ s⁻¹
same,Kd,"TR [5]; steady state, read-out: steady state calculated Kd",28.3 ± 5.12 µM
same,kfast,TR [5]; two-phase dissociation model,5.88 ± 0.96 s⁻¹
same,kslow,TR [5]; two-phase dissociation model,0.08 ± 0.02 s⁻¹
same,competition with NADPH,TR [6]; 30 μM TS2,competitive for NADPH
same,effect on TS2 Km,TR [6]; 40 μM NADPH,did not alter TS2 Km
same,promastigote mortality,"[1]; 72 h after treatment, up to 100 μM",100%
same,IC50,[1],12.4 ± 1.09 µM
same,solubility,[7],> 100 µM
"N[C@@H](CCC(=O)N[C@@H](CS)C(=O)NCC(=O)NCCCCNCCCNC(=O)CNC(=O)[C@H](CS)NC(=O)CC[C@H](N)C(=O)O)C(=O)O [TS2, N1,N8-bis(glutathionyl)spermidine]",Km,"L. infantum TR [2]; luminescent assay, 0.5 nM TR, 12.5 μM NADPH, read-out: TS2 Km (apparent)",13.5 ± 3.8 µM
same,Km,"L. infantum TR [3]; DTNB assay, 20 nM TR, 100 μM NADPH, read-out: TS2 Km (apparent)",3.6 ± 0.5 µM
same,Km,TR [8],23 ± 1 µM
